# Experiments:
# KRas G12D [1] = molecular target: T1, KRas G12D (Homo sapiens (Human), UniProt P01116, G12D); experiment: KRas G12D Binding Assay (TR-FRET displacement of Cy5 labelled tracer); conditions: GDP-loaded KRAS G12D (amino acids 1:169), 60 minute incubation at 22° C.
# Procedure: After a 60 minute incubation at 22° C., the reaction was measured using a PerkinElmer EnVision multimode plate reader via TR-FRET dual wavelength detection, and the percent of control (POC) calculated using a ratiometric emission factor. […] The POC values were fit to a 4-parameter logistic curve and the IC50 value was determined as the concentration where the curve crosses 50 POC.
# ND stands for “not determined.”
# Target sequence in this assay (P01116 other isoform, or with tags, fused parts or gaps G12D): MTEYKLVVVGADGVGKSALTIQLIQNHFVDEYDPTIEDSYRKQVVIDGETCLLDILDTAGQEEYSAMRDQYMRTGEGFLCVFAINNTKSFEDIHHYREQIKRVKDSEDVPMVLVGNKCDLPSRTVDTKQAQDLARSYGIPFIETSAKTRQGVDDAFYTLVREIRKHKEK
# KRas G12D [2] = molecular target: T1, KRas G12D; experiment: KRas G12D Surface Plasmon Resonance (SPR) Binding Assay; conditions: Biacore T200, immobilized biotinylated KRAS protein, 1:1 binding model
# Target sequence in this assay (P01116-2 other isoform, or with tags, fused parts or gaps G12D): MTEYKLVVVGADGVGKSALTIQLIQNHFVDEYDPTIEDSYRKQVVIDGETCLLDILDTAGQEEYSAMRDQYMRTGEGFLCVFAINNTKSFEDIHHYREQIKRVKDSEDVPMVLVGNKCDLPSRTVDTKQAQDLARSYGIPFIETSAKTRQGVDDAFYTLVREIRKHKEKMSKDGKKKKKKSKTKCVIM
Structure (SMILES),IC50 (KRas G12D [1]),Kd (KRas G12D [2])
"Cn1ccnc1CCOc1nc(N2C[C@H]3CC[C@@H](C2)N3)c2cnc(-c3cc(O)cc4ccccc34)c(F)c2n1 [Example 3, 4-(4-((1R,5S)-3,8-diazabicyclo[3.2.1]octan-3-yl)-8-fluoro-2-(2-(1-methyl-1H-imidazol-2-yl)ethoxy)pyrido[4,3-d]pyrimidin-7-yl)naphthalen-2-ol]",9.5 nM,8.3 nM
"CC(C)n1ccnc1CCOc1nc(N2C[C@H]3CC[C@@H](C2)N3)c2cnc(-c3cc(O)cc4ccccc34)c(F)c2n1 [Example 91, 4-(4-((1R,5S)-3,8-diazabicyclo[3.2.1]octan-3-yl)-8-fluoro-2-(2-(1-isopropyl-1H-imidazol-2-yl)ethoxy)pyrido[4,3-d]pyrimidin-7-yl)naphthalen-2-ol]",32.7 nM,25.9 nM
"CN1CCC[C@H]1COc1nc(N2C[C@H]3CC[C@@H](C2)N3)c2cnc(-c3cccc4ccccc34)c(F)c2n1 [Example 20, 4-((1R,5S)-3,8-diazabicyclo[3.2.1]octan-3-yl)-8-fluoro-2-(((S)-1-methylpyrrolidin-2-yl)methoxy)-7-(naphthalen-1-yl)pyrido[4,3-d]pyrimidine]",692 nM,967 nM
"Cc1cccc(F)c1-c1ncc2c(N3C[C@H]4CC[C@@H](C3)N4)nc(OCCc3nccn3C)nc2c1F [Example 316, 4-((1R,5S)-3,8-diazabicyclo[3.2.1]octan-3-yl)-8-fluoro-7-(2-fluoro-6-methylphenyl)-2-(2-(1-methyl-1H-imidazol-2-yl)ethoxy)pyrido[4,3-d]pyrimidine]",> 10000 nM,157000 nM
"Cn1ccnc1COc1nc(N2C[C@H]3CC[C@@H](C2)N3)c2cnc(-c3cc(O)cc4ccccc34)c(F)c2n1 [Example 104, 4-(4-((1R,5S)-3,8-diazabicyclo[3.2.1]octan-3-yl)-8-fluoro-2-((1-methyl-1H-imidazol-2-yl)methoxy)pyrido[4,3-d]pyrimidin-7-yl)naphthalen-2-ol]",1680 nM,362 nM
"CN1CCC[C@H]1COc1nc(N2C[C@H]3CC[C@@H](C2)N3)c2cnc(-c3cc(O)c(Br)c4ccccc34)c(F)c2n1 [Example 14, 4-(4-((1R,5S)-3,8-diazabicyclo[3.2.1]octan-3-yl)-8-fluoro-2-(((S)-1-methylpyrrolidin-2-yl)methoxy)pyrido[4,3-d]pyrimidin-7-yl)-1-bromonaphthalen-2-ol]",73.9 nM,5.1 nM
"Cc1c(-c2cc(O)cc3ccccc23)ncc2c(N3C[C@H]4CC[C@@H](C3)N4)nc(OC[C@@H]3CCCN3C)nc12 [Example 190, 4-(4-((1R,5S)-3,8-diazabicyclo[3.2.1]octan-3-yl)-8-methyl-2-(((S)-1-methylpyrrolidin-2-yl)methoxy)pyrido[4,3-d]pyrimidin-7-yl)naphthalen-2-ol]",64.1 nM,76.1 nM
"CC1(N)CN(c2nc(N3C[C@H]4CC[C@@H](C3)N4)c3cnc(-c4cc(O)cc5ccccc45)c(F)c3n2)C1 [Example 124, 4-(2-(3-amino-3-methylazetidin-1-yl)-4-((1R,5S)-3,8-diazabicyclo[3.2.1]octan-3-yl)-8-fluoropyrido[4,3-d]pyrimidin-7-yl)naphthalen-2-ol]",8.6 nM,22.7 nM
"Oc1cc(-c2ncc3c(N4C[C@H]5CC[C@@H](C4)N5)nc(OCC4(C(F)(F)F)CCCC4)nc3c2F)c2ccccc2c1 [Example 46, 4-(4-((1R,5S)-3,8-diazabicyclo[3.2.1]octan-3-yl)-8-fluoro-2-((1-(trifluoromethyl)cyclopentyl)methoxy)pyrido[4,3-d]pyrimidin-7-yl)naphthalen-2-ol]",721 nM,798 nM
"Nc1cccc(CCOc2nc(N3C[C@H]4CC[C@@H](C3)N4)c3cnc(-c4cc(O)cc5ccccc45)c(F)c3n2)n1 [Example 139, 4-(2-(2-(6-aminopyridin-2-yl)ethoxy)-4-((1R,5S)-3,8-diazabicyclo[3.2.1]octan-3-yl)-8-fluoropyrido[4,3-d]pyrimidin-7-yl)naphthalen-2-ol]",113 nM,25.4 nM
"Oc1cc(-c2ncc3c(N4C[C@H]5CC[C@@H](C4)N5)nc(OCc4cccnc4)nc3c2F)c2ccccc2c1 [Example 99, 4-(4-((1R,5S)-3,8-diazabicyclo[3.2.1]octan-3-yl)-8-fluoro-2-(pyridin-3-ylmethoxy)pyrido[4,3-d]pyrimidin-7-yl)naphthalen-2-ol]",624 nM,897 nM
"Oc1cc(-c2ncc3c(N4C[C@H]5CC[C@@H](C4)N5)nc(OCC4(C(F)(F)F)CC4)nc3c2F)c2ccccc2c1 [Example 51, 4-(4-((1R,5S)-3,8-diazabicyclo[3.2.1]octan-3-yl)-8-fluoro-2-((1-(trifluoromethyl)cyclopropyl)methoxy)pyrido[4,3-d]pyrimidin-7-yl)naphthalen-2-ol]",292 nM,611 nM
"CN(C)C1(C)CN(c2nc(N3C[C@H]4CC[C@@H](C3)N4)c3cnc(-c4cccc5cccc(Cl)c45)c(F)c3n2)C1 [Example 127, 1-(4-((1R,5S)-3,8-diazabicyclo[3.2.1]octan-3-yl)-7-(8-chloronaphthalen-1-yl)-8-fluoropyrido[4,3-d]pyrimidin-2-yl)-N,N,3-trimethylazetidin-3-amine]",251 nM,864 nM
"OCCCOc1nc(N2C[C@H]3CC[C@@H](C2)N3)c2cnc(-c3cc(O)cc4ccccc34)c(F)c2n1 [Example 75, 4-(4-((1R,5S)-3,8-diazabicyclo[3.2.1]octan-3-yl)-8-fluoro-2-(3-hydroxypropoxy)pyrido[4,3-d]pyrimidin-7-yl)naphthalen-2-ol]",240 nM,304 nM
"OCC(CO)COc1nc(N2C[C@H]3CC[C@@H](C2)N3)c2cnc(-c3cccc4cccc(Cl)c34)c(F)c2n1 [Example 35, 2-(((4-((1R,5S)-3,8-diazabicyclo[3.2.1]octan-3-yl)-7-(8-chloronaphthalen-1-yl)-8-fluoropyrido[4,3-d]pyrimidin-2-yl)oxy)methyl)propane-1,3-diol]",475 nM,1380 nM
"Fc1c(-c2cccc3cccc(Cl)c23)ncc2c(N3CC4CCC(C3)N4)nc(OC[C@@]34CCCN3C[C@H](F)C4)nc12 (stereo in doubt) [Example 134, 4-((1R,5S)-3,8-diazabicyclo[3.2.1]octan-3-yl)-7-(8-chloronaphthalen-1-yl)-8-fluoro-2-((2-fluorotetrahydro-1H-pyrrolizin-7a(5H)-yl)methoxy)pyrido[4,3-d]pyrimidine]",3.7 nM,6.9 nM
"Cc1cccc(CCOc2nc(N3C[C@H]4CC[C@@H](C3)N4)c3cnc(-c4cc(O)cc5ccccc45)c(F)c3n2)n1 [Example 87, 4-(4-((1R,5S)-3,8-diazabicyclo[3.2.1]octan-3-yl)-8-fluoro-2-(2-(6-methylpyridin-2-yl)ethoxy)pyrido[4,3-d]pyrimidin-7-yl)naphthalen-2-ol]",536 nM,196 nM
"CC(C)N1CCC[C@H]1COc1nc(N2C[C@H]3CC[C@@H](C2)N3)c2cnc(-c3cccc4cccc(Cl)c34)c(F)c2n1 [Example 29, 4-((1R,5S)-3,8-diazabicyclo[3.2.1]octan-3-yl)-7-(8-chloronaphthalen-1-yl)-8-fluoro-2-(((S)-1-isopropylpyrrolidin-2-yl)methoxy)pyrido[4,3-d]pyrimidine]",160 nM,170 nM

# Reference: patent US20230279025A1, “KRAS G12D INHIBITORS” (Mirati Therapeutics, Inc., priority 2020, published 2023)
